Tested on: SARS-CoV-2
Assay: microbe, parasite or virus in culture
Settings: Severe acute respiratory syndrome coronavirus 2, Vero C1008, 48 h

| SMILES | IC50 [µM] | IC50 (read-out: pIC50 (converted)) [µM] |
| --- | --- | --- |
| O=C(CCCl)NCc1ccccc1 [BECLAMIDE] | > 20 | > 20 |
| CC(CC(c1ccccc1)c1ccccc1)N(C)C (stereo not drawn) [TRIMETHYLDIPHENYLPROPYLAMINE] | > 20 | > 20 |
| Cc1nnc(C(CCN2CC3CCC2CC3)(c2ccccc2)c2ccccc2)o1 [NUFENOXOLE] | > 20 | > 20 |
| O[C@H]1[C@H]2c3cc4c(cc3CN3CCC(=C[C@@H]1O)[C@H]23)OCO4 [LYCORINE] | > 20 | > 20 |
| Cc1cccc(C)c1NC(=O)C1(N(C)C)CCN([C@H]2CCCC[C@@H]2O)CC1 | > 20 | > 20 |
| CC(C)(C)NCC(O)COc1cccc2c1CCC(=O)N2 (stereo not drawn) [CARTEOLOL] | > 20 | > 20 |
| CN1CCC(=C2c3ccccc3CCc3cccnc32)CC1 [AZATADINE] | > 20 | > 20 |
| O=C(O)Cc1ccccc1Nc1c(Cl)cccc1Cl [DICLOFENAC] | > 20 | > 20 |
| CC(=O)OCC(=O)C12N=C(C)OC1CC1C3CCC4=CC(=O)C=CC4(C)C3(F)C(O)CC12C (stereo not drawn) | > 20 | > 20 |
| C=C[C@@](C)(O)CC[C@H]1C(=C)CCC2[C@@](C)(CO)CCC[C@@]21C (stereo partly drawn) | > 20 | > 20 |
| NC(=O)c1cnc(N[C@@H]2CCCC[C@@H]2N)nc1Nc1cccc(-n2nccn2)c1 | > 20 | > 20 |
| CC(C)(Sc1cc(C(C)(C)C)c(O)c(C(C)(C)C)c1)Sc1cc(C(C)(C)C)c(O)c(C(C)(C)C)c1 [PROBUCOL] | > 20 | > 20 |
| CC1CC(OC(=O)C(O)c2ccccc2)CC(C)(C)C1 (stereo not drawn) [CYCLANDELATE] | > 20 | > 20 |
| Nc1ccc(S(=O)(=O)Nc2ccnn2-c2ccccc2)cc1 [SULFAPHENAZOLE] | > 20 | > 20 |
| O=C(O)C1=CC(=C(c2ccc(O)c(C(=O)O)c2)c2ccc(O)c(C(=O)O)c2)C=CC1=O [AURINTRICARBOXYLIC ACID] | > 20 | > 20 |
| C=C1C(=O)O[C@@H]2[C@H]3O[C@]3(C)CC/C=C(\C)CC[C@@H]12 | > 20 | > 20 |
| Cc1cc(NC(=O)NCCN2CCC(O)(Cc3ccccc3)CC2)c2ccccc2n1 [PALOSURAN] | > 20 | > 20 |
| Nc1ncn([C@@H]2O[C@H](CO)[C@@H](O)[C@H]2O)c(=O)n1 [AZACITIDINE] | > 20 | > 20 |
| CN1CCN(CCOc2cc(OC3CCOCC3)c3c(Nc4c(Cl)ccc5c4OCO5)ncnc3c2)CC1 [SARACATINIB] | > 20 | > 20 |
| CC(CCN1CCN(c2ccc(F)cc2)CC1)NC(=O)c1cccnc1 (stereo not drawn) [NIAPRAZINE] | > 20 | > 20 |
| FC(F)(F)c1ccc2c(c1)N(CCCN1CCN(C3CC3)CC1)c1ccccc1S2 [CYCLOPHENAZINE] | > 20 | > 20 |
| CC(C)=CCC/C(C)=C/CC1=C(C)C(=O)c2ccccc2C1=O [MENAQUINONE-2] | > 20 | > 20 |
| c1ccc2c(CCC3CCNCC3)c[nH]c2c1 [INDALPINE] | > 20 | > 20 |
| CCC(=O)Oc1ccc2c(c1)CCC1C2CCC2(C)C(OC(=O)CC)CCC12 (stereo not drawn) | > 20 | > 20 |
| CC=CC(=O)N(CC)c1ccccc1C | > 20 | > 20 |
| COc1cc2c(c(OC)c1OC)-c1c(cc3c(c1OC)OCO3)C[C@H](C)[C@@](C)(O)C2 [BESIGOMSIN] | > 20 | > 20 |
| Nc1[nH]ncc1-c1cc(Cl)ccc1Oc1cc(F)c(S(=O)(=O)Nc2cscn2)cc1Cl [PF-05089771] | > 20 | > 20 |

| SMILES | IC50 [µM] | IC50 (read-out: pIC50 (converted)) [µM] |
| --- | --- | --- |
| C[C@H](CCC(=O)O)[C@H]1CC[C@H]2[C@@H]3[C@H](O)CC4C[C@H](O)CC[C@]4(C)[C@H]3CC[C@]12C (stereo partly drawn) | > 20 | > 20 |
| O=c1c2ccccc2[se]n1-c1ccccc1 [EBSELEN] | > 20 | > 20 |
| COc1c2ccoc2cc2oc(=O)ccc12 [BERGAPTEN] | > 20 | > 20 |
| C=CC(=O)N1C[C@H](COc2nc(Nc3cnn(C)c3)nc3[nH]cc(Cl)c23)[C@@H](OC)C1 [PF-06459988] | > 20 | > 20 |
| COc1cccc(OC)c1-c1cc(C(=O)NC2(C(=O)O)C3CC4CC(C3)CC2C4)nn1-c1ccnc2cc(Cl)ccc12 (stereo not drawn) [REMINERTANT] | > 20 | > 20 |
| NCC(O)CC(=O)O (stereo not drawn) [GAMMA-AMINO-BETA-HYDROXYBUTYRIC ACID] | > 20 | > 20 |
| O[C@@H]1CO[C@H]2[C@@H]1OC[C@@H]2O [ISOSORBIDE] | > 20 | > 20 |
| O=C1CCCN1CC1CCN(c2ccnc(C(F)(F)F)n2)CC1 | > 20 | > 20 |
| CCC(C(=O)OCCN(CC)CC)c1ccccc1 (stereo not drawn) [BUTETAMATE] | > 20 | > 20 |
| CCN1C(=CC=CC=Cc2sc3ccccc3[n+]2CC)Sc2ccccc21 [DITHIAZANINE] | > 20 | > 20 |
| COc1cc2c(cc1OC)C(C)N(CCc1ccc(N)cc1)CC2 (stereo not drawn) [VERADOLINE] | > 20 | > 20 |
| O=C(O)CCCC[C@H]1SC[C@H]2NC(=O)N[C@H]21 | > 20 | > 20 |
| CC(C)(C)C(=O)OCC(=O)[C@H]1CC[C@H]2[C@@H]3CCC4=CC(=O)CC[C@]4(C)[C@H]3CC[C@]12C [DESOXYCORTICOSTERONE PIVALATE] | > 20 | > 20 |
| c1coc(CNc2ncnc3[nH]cnc23)c1 [KINETIN] | > 20 | > 20 |
| O=C1c2ccccc2-c2c1c1ccccc1c(=O)n2CCNCCO | > 20 | > 20 |
| COc1ccc2[nH]c3c(c2c1)CCN=C3C | > 20 | > 20 |
| Cc1nnc(NS(=O)(=O)c2ccc(N)cc2)s1 [SULFAMETHIZOLE] | > 20 | > 20 |
| O=c1cc(-c2ccc(O)cc2)oc2c(C3O[C@H](CO)[C@@H](O)[C@H](O)[C@H]3O)c(O)cc(O)c12 (stereo partly drawn) | > 20 | > 20 |
| c1ccc2[nH]c(-c3cscn3)nc2c1 [THIABENDAZOLE] | > 20 | > 20 |
| CN[C@H](Cc1ccccc1)C(=O)N1CCC[C@H]1C(=O)N[C@H](C=O)CCCNC(=N)N | > 20 | > 20 |
| CC(C)Cn1cnc2c(N)nc3ccccc3c21 [IMIQUIMOD] | > 20 | > 20 |
| O=C(NCCNCC(O)COc1ccc(O)cc1)N1CCOCC1 (stereo not drawn) [XAMOTEROL] | > 20 | > 20 |
| CSCC1CN(/N=C/c2ccc([N+](=O)[O-])o2)C(=O)O1 (stereo not drawn) | > 20 | > 20 |
| CCCC[C@](C)(CO)Nc1nc(N)nc2cc(F)cnc12 [SELGANTOLIMOD] | > 20 | > 20 |
| CO[C@H]1C[C@@H]2CC[C@@H](C)[C@@](O)(O2)C(=O)C(=O)N2CCCC[C@H]2C(=O)O[C@H]([C@H](C)C[C@@H]2CC[C@@H](OP(C)(C)=O)[C@H](OC)C2)CC(=O)[C@H](C)/C=C(/C)[C@@H](O)[C@@H](OC)C(=O)[C@H](C)C[C@H](C)\C=C/C=C\C=C/1C | > 20 | > 20 |
| CC(=O)N[C@@H](CC(N)=O)C(=O)O | > 20 | > 20 |
| COc1cc(C(C)=O)ccc1OCCCN1CCC(c2noc3cc(F)ccc23)CC1 [ILOPERIDONE] | > 20 | > 20 |

From ChEMBL document CHEMBL4651402, “Screening of ~5500 FDA-approved drugs and clinical candidates for anti-SARS-CoV-2 activity” (2021)
